Measured values from patent EP4480497A1, “BIO-CONJUGATES FOR ONCOLOGY” (priority 2023, dated 2024).

Assays:
[1] = test system: triple negative breast tumour cells MDA-MB231; assay: ATPlite luminescence ATP assay in MDA-MB231 cells (Example 5); assay type: cell-based; conditions: MDA-MB231, ATP assay after a 72h treatment, Figure 5A
Protocol: Dose-response curves in triple negative breast tumour cells MDA-MB231 and IC50 values obtained from an ATP assay after a 72h treatment with CROMOC36, CROMOC36-DM1 and the unconjugated DM1 molecule is shown in Figure 5A. The x-axis indicates the drug concentration (nM) in log scale, and the y-axis indicates the % of cell viability as measured by the ATP levels in the treated cells relative to the DMSO control.
The cytotoxic effect of CROMOC-DM1 conjugates was evaluated on the MDA-MB-231 cell line by means of the ATPlite Luminescence ATP Detection Assay System. The cytotoxic effect of the different CROMOC conjugated with DM-1 was compared to that of non-conjugated CROMOCs. Cells treated only with the medium were used as control. Briefly, the cells were seeded in black 96-well plates at a density of 2000 cells/well. After 24 h, cells were treated with increasing concentrations of the conjugates (range 0.02 - 500 nM in CROMOC, n=11) for 72 hours. To quantify ATP production, cells were treated following the manufacturer's instructions, and luminescence was quantified by means of a Victor Nivo multi-plate reader (Perkin Elmer, Waltham, MA, USA). The percentage of cell viability was determined as (luminescencetreated cells/luminescencecontrol cells) × 100. IC50 values were calculated using GraphPad Prism 9.0 (San Diego, CA, USA) by a nonlinear regression model.

[2] = test system: tumour xenograft LIXF HEP3B (hepatocellular carcinoma); assay: Orthotopic hepatocellular carcinoma xenograft, anti-tumour efficacy (Example 7); assay type: in vivo, NMRI nude mice; conditions: seven to eight mice per group, each substance at its one regimen
Protocol: The experiment comprised a reference group (Group 1) dosed with phosphate buffered saline and four treatment groups (Groups 2 to 5). […] The daily dose was split, the daily dosing interval was 6 hours. Mice were either sacrificed individually when their general condition required sacrifice or at termination of the experiment. The group size at the start of dosing was seven to eight mice per group, bearing orthotopic growing LIXF HEP3B.

[3] = Tolerability (mortality, body weight, skin) in the LIXF HEP3B xenograft study (Example 7); assay type: in vivo, NMRI nude mice
Protocol: The experiment comprised a reference group (Group 1) dosed with phosphate buffered saline and four treatment groups (Groups 2 to 5). […] CROMOC62 was given subcutaneously every second week for 4 weeks at 32 (induction dosing on day 0) and 16 (day 14 and 28) mg/kg/d. Sorafenib was applied daily for 6 days in mono and combined therapy and additional 6 days (9-14) exclusively in monotherapy per oral at 200 mg/kg/d. The daily dose was split, the daily dosing interval was 6 hours. Mice were either sacrificed individually when their general condition required sacrifice or at termination of the experiment. The group size at the start of dosing was seven to eight mice per group, bearing orthotopic growing LIXF HEP3B. […] CROMOC62 was given at one dose levels (32 mg/kg on day 0 and 16 mg/kg/d on days 14 and 28) in monotherapy or in combination with sorafenib which was given at one dose level (200 mg/kg/d on days 0-5). The effect of sorafenib monotherapy was also assessed (200 mg/kg/d on day 0-5 and 9-14).

| Compound | IC50 [1] [nM] | complete remissions (number of mice) [2] | partial remissions (number of mice) [2] | mortalities ([3]; LIXF HEP3B study, seven to eight mice per group, each substance at its one regimen) | maximum body weight loss ([3]; on day 16, sorafenib 12x200 mg/kg/d per oral) [%] |
| --- | --- | --- | --- | --- | --- |
| COc1cc2cc(c1Cl)N(C)C(=O)C[C@H](OC(=O)[C@H](C)N(C)C(=O)CCS)[C@]1(C)O[C@H]1[C@H](C)[C@@H]1C[C@@](O)(NC(=O)O1)[C@H](OC)/C=C/C=C(\C)C2 [DM1, DM1 Maytansinoid] | ~0.95 | – | – | – | – |
| CNC(=O)c1cc(Oc2ccc(NC(=O)Nc3ccc(Cl)c(C(F)(F)F)c3)cc2)ccn1 [sorafenib] | – | five | two | One out of eight | 2.5 |
